Earlier results on one compound are cited in patent publication US11434243B2, “Triazoloquinazolinone synthesis” (priority 2017, dated 2022).

The conditions of data set [1]: qualitative; complicates purification.
Data set [2] deals with benzodiazepine site of the GABAA receptor complex.

Structures are written as SMILES.

`Cc1ccc(-n2nc3c4cc(Cc5ccccc5)ccc4[nH]c(=O)n3c2=O)cc1` [Compound 12, 9-benzyl-2-(4-methylphenyl)-2,6-dihydro[1,2,4]triazolo[4,3-c]quinazoline-3,5-dione]: in data set [1], the solubility entry was “low solubility”. In addition, in data set [2] (fold more potent than diazepam), the “potency relative to diazepam in displacing 3H-Flumazenil” value is 10 times. The “inhibition of the binding of 3H-Flumazenil to the benzodiazepine site of the GABAA receptor complex” value in data set [2] (rat membrane preparations, result in words) is recorded as “very potent inhibitor”. For the same compound, the “selectivity for the GABAA receptor complex” value in data set [2] (result in words) is recorded as “selective for the GABAA receptor complex”.
